pEC50: −log10 of the molar value.
Tests used:
Colo-26 cells = test: Dark and light-induced toxicity toward Colo-26 cells in culture; format: cell-based, murine
Experimental: In order to compare relative phototoxicity, the core-modified porphyrins of Table 1 were evaluated in culture for dark and light-induced toxicities toward Colo-26 cells, a murine colon carcinoma cell line.

[1] = Rate of photobleaching in phosphate-buffered saline; format: physicochemical; settings: PBS; 570-750 nm light at 500 mW cm^−2; constant initial absorbance
Source text: One limitation of PDT dosimetry is the rate of photobleaching of the photosensitizer, which can be problematic with Photofrin® and even more problematic with the bacteriochlorins and the chlorins (such as HPPH).

[2] = Tissue distribution by fluorescence in tumor-bearing BALB/c mice; settings: mouse, in vivo
Experimental: At various times after sensitizer administration, animals were sacrificed and sensitizer levels determined by direct extraction. In tumor-bearing animals (BALB/c mice or female Fischer rats), the concentration of sensitizer was determined by fluorescence spectroscopy where possible. At various time points post-injection of 5 μmol/kg of sensitizer or 90% of the LD10 (whichever is smaller), tissues were removed, weighed, homogenized, and frozen in liquid nitrogen (3-5 animals per time point). The homogenate, after thawing, was taken up in Solvable and the emission from sensitizer was quantified in terms of ng of sensitizer/mg of protein. With non-fluorescent sensitizers, sensitizer content was quantified spectrophotometrically. Distribution ratios were expressed as the uptake or retention of sensitizer in tumor relative to various normal tissues. Intensified digital fluorescence microscopy and/or confocal microscopy on frozen sections of the tumors, which were prepared from samples specified for this purpose, enabled us to assess intratumor sensitizer distributions.

Colo-26 tumors = test: PDT against implanted Colo-26 tumors in BALB/c mice; format: in vivo; settings: 6 at 3.25 mg (3.0 μmol)/kg and 694-nm light
Experimental: Core-modified porphyrin 6 gave a PDT response in vivo with 694-nm light in BALB/c mice bearing Colo-26 tumors. Animals treated with photosensitizer 6 at 3.25 mg (3.0 μmol)/kg and light required 10.3±0.8 d to reach 400-mm^3 tumor volume, which was more than double the time for control animals (4.3±1.0 d) receiving neither drug nor light (P <0.01).
The animals were irradiated 4 h post-injection with 135 J cm^−2 of 694-nm red light from a dye laser (75 mW cm^−2 for 30 min). […] For comparison purposes, BALB/C mice bearing Colo-26 tumors were given 2.5 mg (4.0 μmol)/kg of Photofrin® as a 5% aqueous dextrose solution and were irradiated 24 h later with 135 J cm^−2 of 630-nm laser light at a power of 75 mW cm^−2 for PDT with Photofrin®.
Animals initially were given i.v. (tail vein) injections of sensitizer at various concentrations (0.05to 5.0 μmol/kg). Mice were restrained at various times thereafter without anesthesia in specially designed holders. Fischer 344 female rats were chemically restrained at various times thereafter. In both models, tumors or normal back skin were exposed to light from a xenon arc lamp with appropriate filters or to a dye laser tuned to the absorption maximum determined by in vivo reflectance measurements. Power density of delivered light typically fell in the range of 10-200 mW cm^−2 evenly distributed to a spot size of roughly 1.5 cm and measured by a radiometer. Several dose rates were explored to examine role/limitation of available oxygen on the photodynamic process. Intratumor temperatures were measured with an Omega HYP-O microthermocouple and, when necessary, a stream of nitrogen gas was used to keep intratumor temperatures below 37° C. Animals were examined and measured daily for the first 14 days post treatment and every other day thereafter until the tumors reached 400 mm^3 in mice or until the tumors double in size for Fischer 344 female rats or for 90 days. Tumor size were measured in two dimensions with a caliper. Time to 400 mm^3 or volume doubling times of tumors from control and PDT-treated groups (8-12 animals per group) were compared statistically using the SAS statistical program (SAS, Inc., Cary, N.C.). A P-value of <0.05 is considered significant. The degree of damage to the normal skin within the irradiation field also were noted. Disappearance of tumor with minimal damage to normal skin is the most desirable response. Animals are considered cured if no tumor regrowth occurs by 90 days. In all studies, three control groups were utilized in addition to the treatment group receiving both sensitizer and light: 1) a complete control receiving neither drug nor light, 2) a group receiving sensitizer only, and 3) a group receiving light only. Representative animals from each of the treatment groups were processed for histology immediately, one day, or two weeks after irradiation. Step sections through the tumor were used to define the boundaries of tumor cell damage and death as a function of distance from the skin surface.

[3] = Clearance from the serum by fluorescence; format: in vivo, mice; settings: fluorescence measurements, post-injection
Experimental: BALB/c mice were treated with 5 mg/kg of photosensitizer 6 and the ear-swelling response (ESR) was determined at selected time-points.

BALB/c mice = settings: mouse, in vivo, 10 mg/kg
[4] = 5 mg (5 μmole)/kg of 6; BALB/c mice bearing Colo-26 tumors; cited from earlier work

Question: With “5,10,15,20-tetrakis(4-sulfonatophenyl)-21,23-dithiaporphyrin [Compound 6]” as the substance, how does the pEC50 (Colo-26 cells; 24 h incubation in dark, 4 J cm^−2 of 590-800 nm light, survival 24 h later, read-out: effective concentration to give 50% cell-kill of Colo-26 cells in vitro (EC50)) read?
Answer: The pEC50 was 4.52.

Question: And the “dark toxicity toward Colo-26 cells” value (Colo-26 cells; dark, concentrations ≦100 μg/mL (≦100 μM))?
Answer: Its value is “negligible dark toxicity”.

Question: And the “rate of photobleaching (kbleach)” value [1]?
Answer: The value was 0.84 ± 0.02 × 10^4 s^−1.

Question: And the “tumor selectivity of uptake by fluorescence” value [2]?
Answer: Its value is “preferentially taken up by tumor”.

Question: And the “time to reach 400-mm^3 tumor volume” value (Colo-26 tumors)?
Answer: The value was 10.3 ± 0.8 days.

Question: What about the “time to clearance from the serum” value [3] of the same substance?
Answer: Its value is 7 days.

Question: And the toxicity and morbidity (BALB/c mice)?
Answer: The toxicity and morbidity was “no toxicity, morbidity, or side effects were observed”.

Question: And the “concentration in tumor 24 h post-injection” value [4]?
Answer: Its value is 0.019±0.007 μg/g of protein.

Reference: patent publication US6984656B2, “Core modified porphyrins” (priority 2001, dated 2006)
